Measured values from patent US5866596A, “3,4-diaryloxazolone derivatives, their methods of preparation and their uses in therapeutics” (Laboratories UPSA, priority 1996, dated 1999).
Like-named read-outs stand apart in the source and are kept apart here.

Columns and labels:
[1] = biological target: T1, COX-1 (purified enzyme from ram seminal vesicles) (Ovis aries, UniProt P05979); experiment: Inhibition of COX-1 enzymatic activity (PGE2 by EIA); format: biochemical; settings: arachidonic acid 6 μM, mean of 4 determinations; for inhibition at 10 µM: 10^-5 M; for inhibition at 0.1 µM: 10^-7 M
T1 construct: purified enzyme from ram seminal vesicles; from tissue; host or cells: ram seminal vesicles
T1 sequence (P05979 25-600): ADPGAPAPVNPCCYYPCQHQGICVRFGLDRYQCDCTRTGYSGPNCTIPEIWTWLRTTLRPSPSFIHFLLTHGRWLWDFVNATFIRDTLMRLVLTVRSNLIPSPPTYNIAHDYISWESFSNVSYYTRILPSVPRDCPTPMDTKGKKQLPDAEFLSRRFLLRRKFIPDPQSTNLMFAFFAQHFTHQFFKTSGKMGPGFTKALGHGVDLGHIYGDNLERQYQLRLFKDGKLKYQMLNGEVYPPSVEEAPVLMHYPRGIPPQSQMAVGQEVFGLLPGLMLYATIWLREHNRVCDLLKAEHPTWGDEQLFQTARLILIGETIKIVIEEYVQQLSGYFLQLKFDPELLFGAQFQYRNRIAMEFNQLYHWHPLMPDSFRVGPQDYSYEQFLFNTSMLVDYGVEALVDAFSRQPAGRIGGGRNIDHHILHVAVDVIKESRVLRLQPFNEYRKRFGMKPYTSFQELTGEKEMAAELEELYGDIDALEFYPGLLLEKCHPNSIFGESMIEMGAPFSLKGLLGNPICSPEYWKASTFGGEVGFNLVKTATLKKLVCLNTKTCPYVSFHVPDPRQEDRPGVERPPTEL
Experimental: (§1) Arachidonic acid (6 μM for COX-1, 4 μM for COX-2) is added to the reaction medium and incubation is carried out for 5 minutes at 25° C. When incubation has ended, the enzymatic reaction is stopped by the addition of 1N HCl and the PGE2 produced is determined by EIA. The results are expressed as the percentage inhibition of the COX-1 and COX-2 enzymatic activities and correspond to mean (±) standard deviations from the average of 4 determinations.

[2] = Gastric tolerance (ulcerogenic dose); design: species or system Charles River rats strain CD; settings: rat, in vivo
Experimental: The gastic tolerance study is carried out in Charles River rats strain CD weighing 110 to 150 g. The animals are placed on a water diet 24 hours before administration of the product or the vehicle alone, via the oral route (1 ml/100 g) (n=6 animals per dose). Six hours after administration,the animals are sacrificed and the stomachs are removed and opened along the greater curvature. The number of haemorrhagic spots and lines per stomach identified macroscopically permits establishing an ulceration index (0: no lesion, 1: 1 to 2 lesions, 2: 3 to 4 lesions, 3: 5 to 8 lesions, 4: 9 to 16 lesions, 5: more than 17 lesions) and estimating the 50% ulcerogenic dose (UD50 =dose expressed in mg/kg inducing 4 to 5 lesions).

[3] = tested on: arthritis with kaolin (pain response); experiment: Analgesic activity: test of arthritis with kaolin; format: in vivo; settings: 30 mg/kg oral, rats, 5 hours 30 minutes after administration, n=10 per dose
Experimental: (§2) The anti-inflammatory activity of the compounds of the Examples has been evaluated according to the method of oedema with carrageenan and the analgesic activity has been evaluated according to the method of arthritis with kaolin.
The analgesic activity is evaluated in rats by the test of arthritis with kaolin. Thirty minutes after intra-articular administration of an aqueous 10% suspension of kaolin, the product is administered orally at a rate of 1 ml/100 g (n=10 animals per dose). The percentage inhibition of the animal's pain response (by rating the way it walks) is calculated 5 hours 30 minutes after administration of the product.

oedema with carrageenan = experiment: Anti-inflammatory activity: test of oedema with carrageenan; format: in vivo; settings: Rattus norvegicus, 30 mg/kg oral, rats, after 3 hours, n=6 per dose, read-out: Anti-inflammatory activity, % inhibition (volume of the oedema)
Experimental: as §2
The anti-inflammatory activity is evaluated in rats by the test of oedema with carrageenan. The product is administered orally at a rate of 2.5 ml/100 g (n=6 animals per dose) 2 hours 30 minutes after a water overload taken orally (2.5 ml/100 g). One hour after administration of the product, the oedema is induced by plantar subcutaneous injection of aqueous 2% carrageenan solution. The percentage inhibition of the volume of the oedema is calculated after 3 hours by measuring the volume of the paw with the aid of a mercury plethysmometer.

[4] = biological target: T2, COX-2 (purified enzyme from ewe placenta) (Ovis aries, UniProt P79208); experiment: Inhibition of COX-2 enzymatic activity (PGE2 by EIA); format: biochemical; settings: arachidonic acid 4 μM, mean of 4 determinations; for inhibition at 10 µM: 10^-5 M; for inhibition at 0.1 µM: 10^-7 M
T2 construct: purified enzyme from ewe placenta; from tissue; host or cells: ewe placenta
T2 sequence (P79208 17-603): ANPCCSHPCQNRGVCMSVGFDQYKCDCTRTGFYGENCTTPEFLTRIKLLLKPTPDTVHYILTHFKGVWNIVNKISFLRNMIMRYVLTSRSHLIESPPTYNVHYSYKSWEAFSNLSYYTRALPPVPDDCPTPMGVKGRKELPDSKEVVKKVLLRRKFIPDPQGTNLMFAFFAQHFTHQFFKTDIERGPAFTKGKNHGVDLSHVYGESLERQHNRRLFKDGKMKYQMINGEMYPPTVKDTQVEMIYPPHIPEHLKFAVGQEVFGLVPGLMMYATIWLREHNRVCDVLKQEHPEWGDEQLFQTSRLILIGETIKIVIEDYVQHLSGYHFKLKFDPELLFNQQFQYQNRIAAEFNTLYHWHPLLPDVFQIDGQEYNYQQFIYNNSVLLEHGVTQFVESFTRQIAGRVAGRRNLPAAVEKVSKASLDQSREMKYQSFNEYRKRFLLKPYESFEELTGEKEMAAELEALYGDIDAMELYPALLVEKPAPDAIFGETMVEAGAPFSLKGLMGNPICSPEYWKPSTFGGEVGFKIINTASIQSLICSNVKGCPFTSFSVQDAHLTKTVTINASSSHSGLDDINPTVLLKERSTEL
Experimental: as §1

Row | inhibition at 10 µM [1] [%] | inhibition at 0.1 µM [1] [%] | inhibition at 10 µM [4] [%] | inhibition at 0.1 µM [4] [%] | SMILES | TD50 at 6 h ([2]; po) [mg/kg] | Analgesic activity, % inhibition (pain response) [3] [%] | inhibition in vivo at 30 mg/kg (oedema with carrageenan) [%] | TD50 at 6 h ([2]; rats, oral, 6 hours after administration, dose inducing 4 to 5 lesions, read-out: UD50 (confidence limit), 50% ulcerogenic dose) [mg/kg]
1 | 0 | 0 | 78 | 16 | CS(=O)(=O)c1ccc(-c2coc(=O)n2-c2ccccc2)cc1 [Example 16, 3-phenyl-4-(4-methanesulfonylphenyl)-3H-oxazol-2-one] |  | 60 | 45 | 
2 | 0 | 0 | 85 | 11 | CS(=O)(=O)c1ccc(-c2coc(=O)n2-c2ccc(Cl)cc2)cc1 [Example 17, 3-(4-chlorophenyl)-4-(4-methanesulfonylphenyl)-3H-oxazol-2-one] |  | 42 | 32 | 
3 | 0 | 0 | 92 | 14 | Cc1cccc(-n2c(-c3ccc(S(C)(=O)=O)cc3)coc2=O)c1 [Example 18, 3-(3-methylphenyl)-4-(4-methanesulfonylphenyl)-3H-oxazol-2-one] |  | 0 | 18 | 
4 | 0 | 0 | 87 | 18 | CS(=O)(=O)c1ccc(-c2coc(=O)n2-c2cccc(Cl)c2)cc1 [Example 19, 3-(3-chlorophenyl)-4-(4-methanesulfonylphenyl)-3H-oxazol-2-one] |  | 60 | 37 | 
5 | 0 | 0 | 94 | 26 | CS(=O)(=O)c1ccc(-c2coc(=O)n2-c2ccc(Cl)c(Cl)c2)cc1 [Example 20, 3-(3,4-dichlorophenyl)-4-(4-methanesulfonylphenyl)-3H-oxazol-2-one] |  | 75 | 48 | 
6 | 0 | 0 | 76 | 11 | CS(=O)(=O)c1ccc(-c2coc(=O)n2-c2cccc(F)c2)cc1 [Example 21, 3-(3-fluorophenyl)-4-(4-methanesulfonylphenyl)-3H-oxazol-2-one] |  |  | 55 | 
7 |  |  | 88 | 12 | Cc1ccc(-n2c(-c3ccc(S(C)(=O)=O)cc3)coc2=O)cc1 [Example 22, 3-(4-methylphenyl)-4-(4-methanesulfonylphenyl)-3H-oxazol-2-one] |  |  | 42 | 
8 |  |  |  |  | COc1ccc2c(c1)c(CC(=O)O)c(C)n2C(=O)c1ccc(Cl)cc1 [indomethacin, reference compound] |  |  |  | 8.3

Row | SMILES | inhibition at 10 µM [1] [%] | inhibition at 0.1 µM [1] [%] | inhibition at 10 µM [4] [%] | inhibition at 0.1 µM [4] [%] | TD50 at 6 h ([2]; po) [mg/kg] | Analgesic activity, % inhibition (pain response) [3] [%] | inhibition in vivo at 30 mg/kg (oedema with carrageenan) [%] | TD50 at 6 h ([2]; rats, oral, 6 hours after administration, dose inducing 4 to 5 lesions, read-out: UD50 (confidence limit), 50% ulcerogenic dose) [mg/kg]
9 | CS(=O)(=O)c1ccc(-c2coc(=O)n2-c2ccc(F)cc2)cc1 [Example 4, 3-(4-fluorophenyl)-4-(4-methanesulfonylphenyl)-3H-oxazol-2-one] | 0 | 0 | 82.7 | 12 | > 300 | 55 | 53 | 
